The Kd is the concentration at which binding is half-saturated. A lower Kd goes with a tighter complex.

Assay [1] deals with T1, VqmA (Vibrio cholerae, UniProt A0A0F0AZW0). Briefly: biochemical.
Target sequence in this assay (A0A0F0AZW0 1-246 limits assumed): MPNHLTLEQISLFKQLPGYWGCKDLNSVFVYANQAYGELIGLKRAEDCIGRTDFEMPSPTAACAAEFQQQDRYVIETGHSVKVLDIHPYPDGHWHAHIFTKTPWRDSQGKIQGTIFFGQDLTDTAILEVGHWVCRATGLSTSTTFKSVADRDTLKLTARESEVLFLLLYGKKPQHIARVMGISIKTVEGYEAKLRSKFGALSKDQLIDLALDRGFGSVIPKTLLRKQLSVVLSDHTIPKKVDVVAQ
Assay [2] addresses T1, VqmA. The assay is described as follows: biochemical. The source holds these as a separate data set.
Target sequence in this assay (A0A0F0AZW0 1-246): as the sequence (A0A0F0AZW0 1-246 limits assumed) above

Like-named read-outs stand apart in the source and are kept apart here.

Turning to `CC1NC(C)(C)CNC1=O` (stereo not drawn) [compound 2, 3,5,5-trimethylpiperazin-2-one], on VqmA [1], binding was put at a Kd of 7 ± 3.1 µM.

Regarding `C[C@H]1NC(C)(C)CNC1=O` [compound 1, (R)-3,5,5-trimethylpiperazin-2-one], the affinity at VqmA [1], expressed as Kd, was 10.3 ± 3.1 µM.

For the compound `Cc1cnc(O)cn1` [compound 5, 5], the Kd on VqmA [2] was found to be 6 ± 1 µM.
